Measurements: patent US12486271B2, “Solid forms of a toll-like receptor modulator” (GILEAD SCIENCES, INC., priority 2014, dated 2025)

Assays:
HCV = conditions: once daily 7-day treatment, HCV infected patients; cited from earlier work
[1] = Variable temperature XRD (VT XRD) experiment: form stability on cooling; assay type: physicochemical; conditions: cooled to 25° C. after generation by heating
Source text: X-ray Powder Diffraction (XRPD). The Rigaku Smart-Lab® X-ray diffraction system was configured for reflection BraggBrentano geometry using a line source X-ray beam. The x-ray source is a Cu Long Fine Focus tube that was operated at 40 kV and 44 mA. That source provides an incident beam profile at the sample that changes from a narrow line at high angles to a broad rectangle at low angles. Beam conditioning slits were used on the line X-ray source to ensure that the maximum beam size is less than 10 mm both along the line and normal to the line. The Bragg-Brentano geometry is a para-focusing geometry controlled by passive divergence and receiving slits with the sample itself acting as the focusing component for the optics. The inherent resolution of Bragg-Brentano geometry is governed in part by the diffractometer radius and the width of the receiving slit used. Typically, the Rigaku Smart-Lab is operated to give peak widths of 0.1°2θ or less. The axial divergence of the X-ray beam is controlled by 5.0-degree Soller slits in both the incident and diffracted beam paths. Powder samples were prepared in a low background Si holder using light manual pressure to keep the sample surfaces flat and level with the reference surface of the sample holder. The single-crystal, Si, low-background holder has a small circular recess (7 mm diameter and about 1 mm depth) that holds between 5 and 10 mg of powdered material. Each sample was analyzed from 2 to 40°2θ using a continuous scan of 3°2θ per minute with an effective step size of 0.02°2θ. Form III was generated at 138° C. from Form I in a variable temperature XRD (VT XRD) experiment. […] Form III is characterized by the X-ray powder diffraction pattern in FIG. 9, and the differential scanning calorimetry plot in FIG. 11 showing endotherms at about 181 and 271° C. (decomposition). Form IV was generated between 95 and 110° C. from Form II in a variable temperature XRD experiment. […] is characterized by the X-ray powder diffraction pattern in FIG. 13.

[2] = Competition slurry experiment of Form I and Form III in methanol; assay type: physicochemical; conditions: 10 mg of each of Form I and Form III in methanol

Question: For `Nc1nc(=O)c2sc(=O)n([C@@H]3O[C@H](CO)[C@@H](O)[C@H]3O)c2[nH]1` [isatoribine], which Plasma virus concentrations (HCV) is on record?
Answer: reduces plasma virus concentrations

Question: For `CCCCOc1nc(N)c2c(n1)N(Cc1cccc(CN3CCCC3)c1)CC(=O)N2` [Form IV, 4-amino-2-butoxy-8-(3-(pyrrolidin-1-ylmethyl)benzyl)-7,8-dihydropteridin-6(5H)-one], which “Solid form stability when cooled to 25° C. in variable temperature XRD” value (from here on “Solid form stability when cooled”) [1] is on record?
Answer: converts back to Form II when cooled to 25 °C

Question: For `CCCCOc1nc(N)c2c(n1)N(Cc1cccc(CN3CCCC3)c1)CC(=O)N2` [Form III, 4-amino-2-butoxy-8-(3-(pyrrolidin-1-ylmethyl)benzyl)-7,8-dihydropteridin-6(5H)-one], which “Solid form stability when cooled” value [1] is on record?
Answer: stable when cooled to 25 °C and does not convert back to Form I

Question: What about the “Solid form stability when cooled” value ([1]; listed as Compound I Form III) of the same compound?
Answer: remains as Form III

Question: And the “Time for conversion of Form III back to Form I in competition slurry” value [2]?
Answer: ≤ 2 weeks
